In test [1] the target is T1, Acyl-CoA dehydrogenase family member 11 (Homo sapiens, UniProt Q709F0).
T1 sequence (Q709F0 whole entry): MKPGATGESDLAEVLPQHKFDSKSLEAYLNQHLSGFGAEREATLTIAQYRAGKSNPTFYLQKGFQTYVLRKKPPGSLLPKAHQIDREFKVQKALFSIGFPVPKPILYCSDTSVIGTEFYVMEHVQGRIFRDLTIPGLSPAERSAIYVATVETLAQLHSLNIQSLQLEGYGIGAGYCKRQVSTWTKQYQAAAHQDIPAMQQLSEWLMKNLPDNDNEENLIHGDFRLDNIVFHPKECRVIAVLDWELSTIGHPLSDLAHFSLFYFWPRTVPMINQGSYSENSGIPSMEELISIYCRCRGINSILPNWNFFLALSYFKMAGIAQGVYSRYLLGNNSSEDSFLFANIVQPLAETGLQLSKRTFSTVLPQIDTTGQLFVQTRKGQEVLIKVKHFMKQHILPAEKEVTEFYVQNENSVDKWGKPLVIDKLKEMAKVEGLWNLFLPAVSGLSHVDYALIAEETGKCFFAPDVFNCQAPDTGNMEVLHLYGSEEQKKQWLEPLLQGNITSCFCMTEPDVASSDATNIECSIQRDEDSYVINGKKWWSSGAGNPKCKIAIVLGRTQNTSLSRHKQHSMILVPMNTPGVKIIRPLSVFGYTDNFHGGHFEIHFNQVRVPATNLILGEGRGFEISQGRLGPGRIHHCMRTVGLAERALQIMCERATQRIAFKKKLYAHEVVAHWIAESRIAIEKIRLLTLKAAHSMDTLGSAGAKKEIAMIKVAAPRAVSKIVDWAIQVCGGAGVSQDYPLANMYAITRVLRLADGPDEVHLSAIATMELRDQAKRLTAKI

Test [2] concerns the target Casein kinase I isoform delta (Homo sapiens, UniProt P48730).
Another test deals with LIM domain kinase 2 (Homo sapiens, UniProt P53671).
In test [3] the target is MAP/microtubule affinity-regulating kinase 3 (Homo sapiens, UniProt P27448).
For test [4], the target named is Serine/threonine-protein kinase PAK 4 (Homo sapiens, UniProt O96013).
The target in test [5] is cAMP-dependent protein kinase type II-alpha regulatory subunit (Homo sapiens, UniProt P13861).
The target in the next test is Focal adhesion kinase 1 (Homo sapiens, UniProt Q05397).
In test [6] the target is T2, Glycogen phosphorylase, brain form (Homo sapiens, UniProt P11216).
T2 sequence (P11216 whole entry): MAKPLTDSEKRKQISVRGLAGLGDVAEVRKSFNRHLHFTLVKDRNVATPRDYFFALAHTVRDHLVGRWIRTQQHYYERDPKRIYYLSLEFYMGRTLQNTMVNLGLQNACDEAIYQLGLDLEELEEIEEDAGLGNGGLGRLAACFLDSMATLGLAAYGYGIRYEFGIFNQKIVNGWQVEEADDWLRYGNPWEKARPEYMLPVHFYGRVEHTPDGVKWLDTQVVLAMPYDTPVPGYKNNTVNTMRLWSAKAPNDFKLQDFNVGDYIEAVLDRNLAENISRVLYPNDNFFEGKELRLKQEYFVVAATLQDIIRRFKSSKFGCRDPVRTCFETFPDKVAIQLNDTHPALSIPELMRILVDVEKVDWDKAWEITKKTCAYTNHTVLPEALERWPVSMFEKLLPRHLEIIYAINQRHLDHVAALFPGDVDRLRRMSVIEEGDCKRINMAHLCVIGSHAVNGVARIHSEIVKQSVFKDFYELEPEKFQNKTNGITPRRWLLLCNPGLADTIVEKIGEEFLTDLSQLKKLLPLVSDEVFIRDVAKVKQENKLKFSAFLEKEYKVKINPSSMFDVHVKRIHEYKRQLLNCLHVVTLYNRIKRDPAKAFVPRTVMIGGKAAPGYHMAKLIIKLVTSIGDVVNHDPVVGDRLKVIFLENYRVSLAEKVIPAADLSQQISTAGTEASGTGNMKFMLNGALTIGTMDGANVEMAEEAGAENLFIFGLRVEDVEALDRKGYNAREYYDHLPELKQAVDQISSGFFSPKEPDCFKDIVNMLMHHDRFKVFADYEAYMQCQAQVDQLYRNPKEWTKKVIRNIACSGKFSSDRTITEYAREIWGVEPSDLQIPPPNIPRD

For test [7], the target named is Ribosomal protein S6 kinase alpha-5 (Homo sapiens, UniProt O75582).
Test [8] concerns the target T3, STE20-related kinase adapter protein alpha (Homo sapiens, UniProt Q7RTN6).
T3 sequence (Q7RTN6 whole entry): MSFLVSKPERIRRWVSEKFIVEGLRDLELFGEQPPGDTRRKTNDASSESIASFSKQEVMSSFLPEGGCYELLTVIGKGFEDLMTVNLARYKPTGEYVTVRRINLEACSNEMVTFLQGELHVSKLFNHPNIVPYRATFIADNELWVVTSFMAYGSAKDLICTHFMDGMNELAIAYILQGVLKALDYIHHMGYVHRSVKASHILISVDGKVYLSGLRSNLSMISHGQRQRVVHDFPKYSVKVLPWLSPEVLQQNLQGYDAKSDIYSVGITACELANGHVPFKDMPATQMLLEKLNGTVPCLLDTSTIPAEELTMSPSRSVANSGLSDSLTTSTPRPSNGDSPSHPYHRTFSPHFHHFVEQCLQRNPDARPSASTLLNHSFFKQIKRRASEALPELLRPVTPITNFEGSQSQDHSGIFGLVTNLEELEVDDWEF

The target in test [9] is T4, Tyrosine--tRNA ligase, cytoplasmic (Homo sapiens, UniProt P54577).
T4 sequence (P54577 whole entry): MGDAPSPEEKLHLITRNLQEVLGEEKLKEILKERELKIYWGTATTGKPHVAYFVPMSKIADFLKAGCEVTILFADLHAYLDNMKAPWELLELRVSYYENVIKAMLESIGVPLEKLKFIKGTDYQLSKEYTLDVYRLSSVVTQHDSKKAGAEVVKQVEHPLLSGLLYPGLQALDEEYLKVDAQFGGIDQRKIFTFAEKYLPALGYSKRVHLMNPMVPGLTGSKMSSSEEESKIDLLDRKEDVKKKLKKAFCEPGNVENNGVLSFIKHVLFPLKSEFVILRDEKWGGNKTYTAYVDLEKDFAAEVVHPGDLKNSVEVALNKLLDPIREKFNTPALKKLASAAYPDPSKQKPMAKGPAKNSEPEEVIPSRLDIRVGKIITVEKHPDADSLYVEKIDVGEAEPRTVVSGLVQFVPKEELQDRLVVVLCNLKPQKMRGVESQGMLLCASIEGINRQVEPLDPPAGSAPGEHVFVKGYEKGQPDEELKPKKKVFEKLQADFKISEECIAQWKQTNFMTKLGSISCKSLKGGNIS

Active and inactive are the calls of the source. For most assays here, no stated cut-off is given here; in the data, actives have a measured Kd and inactives only a lower limit. A value given as a limit tells only on which side of the number the result lay.

Sequence of MAP/microtubule affinity-regulating kinase 3 (P27448 whole entry): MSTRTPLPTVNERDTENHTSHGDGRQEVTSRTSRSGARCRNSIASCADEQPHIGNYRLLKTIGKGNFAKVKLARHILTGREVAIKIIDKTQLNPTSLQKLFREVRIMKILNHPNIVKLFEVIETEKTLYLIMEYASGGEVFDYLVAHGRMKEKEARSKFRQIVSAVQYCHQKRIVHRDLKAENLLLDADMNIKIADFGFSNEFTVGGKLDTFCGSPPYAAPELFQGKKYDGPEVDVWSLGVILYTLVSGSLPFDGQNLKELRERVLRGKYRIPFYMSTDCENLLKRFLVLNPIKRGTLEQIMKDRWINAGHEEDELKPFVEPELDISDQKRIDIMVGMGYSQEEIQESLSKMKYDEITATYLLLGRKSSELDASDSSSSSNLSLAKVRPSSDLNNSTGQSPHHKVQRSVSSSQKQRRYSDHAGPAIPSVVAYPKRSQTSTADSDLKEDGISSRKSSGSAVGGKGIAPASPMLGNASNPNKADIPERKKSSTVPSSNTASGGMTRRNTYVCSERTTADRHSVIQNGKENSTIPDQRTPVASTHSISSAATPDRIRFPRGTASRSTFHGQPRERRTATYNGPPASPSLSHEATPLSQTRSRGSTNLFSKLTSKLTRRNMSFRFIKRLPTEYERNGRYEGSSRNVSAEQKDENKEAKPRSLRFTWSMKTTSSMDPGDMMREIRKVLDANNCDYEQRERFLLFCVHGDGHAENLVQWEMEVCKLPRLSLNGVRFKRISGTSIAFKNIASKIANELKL
Sequence of Casein kinase I isoform delta (P48730 whole entry, the tested form may be a part, canonical isoform): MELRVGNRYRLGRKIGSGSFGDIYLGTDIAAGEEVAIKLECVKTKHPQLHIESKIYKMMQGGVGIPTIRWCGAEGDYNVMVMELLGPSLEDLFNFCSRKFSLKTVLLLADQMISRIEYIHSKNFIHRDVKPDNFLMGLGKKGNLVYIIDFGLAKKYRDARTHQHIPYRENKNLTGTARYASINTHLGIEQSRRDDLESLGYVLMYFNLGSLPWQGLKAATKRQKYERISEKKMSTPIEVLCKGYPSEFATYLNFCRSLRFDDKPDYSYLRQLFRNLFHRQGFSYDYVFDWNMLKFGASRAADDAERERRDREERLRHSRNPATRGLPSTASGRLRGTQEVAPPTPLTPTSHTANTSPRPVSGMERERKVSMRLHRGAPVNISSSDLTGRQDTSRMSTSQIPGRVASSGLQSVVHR
Sequence of Serine/threonine-protein kinase PAK 4 (O96013 whole entry): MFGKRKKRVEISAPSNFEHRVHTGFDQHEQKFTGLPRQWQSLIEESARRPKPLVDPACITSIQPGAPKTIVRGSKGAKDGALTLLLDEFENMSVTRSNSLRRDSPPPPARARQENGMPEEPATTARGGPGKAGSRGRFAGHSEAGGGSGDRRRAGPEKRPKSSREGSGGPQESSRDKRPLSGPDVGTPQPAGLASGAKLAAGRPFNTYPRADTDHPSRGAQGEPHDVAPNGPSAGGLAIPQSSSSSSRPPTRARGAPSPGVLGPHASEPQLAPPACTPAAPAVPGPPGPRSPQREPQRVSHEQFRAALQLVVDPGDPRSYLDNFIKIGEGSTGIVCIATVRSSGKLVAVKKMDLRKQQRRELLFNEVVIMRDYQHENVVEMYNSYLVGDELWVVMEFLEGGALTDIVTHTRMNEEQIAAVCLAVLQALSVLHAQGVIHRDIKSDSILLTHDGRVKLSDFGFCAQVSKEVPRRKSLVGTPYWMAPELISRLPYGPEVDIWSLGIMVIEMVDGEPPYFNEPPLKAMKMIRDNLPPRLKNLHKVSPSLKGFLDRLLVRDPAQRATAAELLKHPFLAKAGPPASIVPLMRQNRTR
Sequence of Focal adhesion kinase 1 (Q05397 whole entry): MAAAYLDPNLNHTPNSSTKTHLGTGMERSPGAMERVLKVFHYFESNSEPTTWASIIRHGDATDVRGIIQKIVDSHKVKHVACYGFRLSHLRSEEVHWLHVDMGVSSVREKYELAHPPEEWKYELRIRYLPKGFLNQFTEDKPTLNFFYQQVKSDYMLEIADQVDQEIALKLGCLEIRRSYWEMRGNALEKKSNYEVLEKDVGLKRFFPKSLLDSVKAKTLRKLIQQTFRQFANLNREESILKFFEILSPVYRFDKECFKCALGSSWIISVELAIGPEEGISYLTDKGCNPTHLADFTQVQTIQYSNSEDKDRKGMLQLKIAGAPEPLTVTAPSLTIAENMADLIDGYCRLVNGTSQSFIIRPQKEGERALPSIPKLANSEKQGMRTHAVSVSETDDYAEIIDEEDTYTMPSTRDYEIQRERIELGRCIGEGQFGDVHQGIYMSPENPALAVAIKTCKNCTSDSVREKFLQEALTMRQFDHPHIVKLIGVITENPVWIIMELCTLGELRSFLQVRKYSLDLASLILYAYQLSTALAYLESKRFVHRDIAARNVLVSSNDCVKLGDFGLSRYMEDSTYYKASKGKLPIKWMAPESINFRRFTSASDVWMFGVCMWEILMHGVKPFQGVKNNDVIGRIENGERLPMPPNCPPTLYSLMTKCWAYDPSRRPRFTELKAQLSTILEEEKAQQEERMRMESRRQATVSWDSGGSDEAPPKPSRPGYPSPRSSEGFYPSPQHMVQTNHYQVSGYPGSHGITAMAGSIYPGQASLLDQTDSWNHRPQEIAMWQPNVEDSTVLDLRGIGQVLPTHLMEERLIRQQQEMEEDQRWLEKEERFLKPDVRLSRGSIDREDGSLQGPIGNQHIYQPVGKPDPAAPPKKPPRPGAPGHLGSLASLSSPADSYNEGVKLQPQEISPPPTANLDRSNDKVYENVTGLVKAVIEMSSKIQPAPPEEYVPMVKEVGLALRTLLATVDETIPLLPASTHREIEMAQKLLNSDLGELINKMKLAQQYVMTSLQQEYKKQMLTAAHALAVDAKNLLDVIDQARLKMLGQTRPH
Sequence of Ribosomal protein S6 kinase alpha-5 (O75582 whole entry): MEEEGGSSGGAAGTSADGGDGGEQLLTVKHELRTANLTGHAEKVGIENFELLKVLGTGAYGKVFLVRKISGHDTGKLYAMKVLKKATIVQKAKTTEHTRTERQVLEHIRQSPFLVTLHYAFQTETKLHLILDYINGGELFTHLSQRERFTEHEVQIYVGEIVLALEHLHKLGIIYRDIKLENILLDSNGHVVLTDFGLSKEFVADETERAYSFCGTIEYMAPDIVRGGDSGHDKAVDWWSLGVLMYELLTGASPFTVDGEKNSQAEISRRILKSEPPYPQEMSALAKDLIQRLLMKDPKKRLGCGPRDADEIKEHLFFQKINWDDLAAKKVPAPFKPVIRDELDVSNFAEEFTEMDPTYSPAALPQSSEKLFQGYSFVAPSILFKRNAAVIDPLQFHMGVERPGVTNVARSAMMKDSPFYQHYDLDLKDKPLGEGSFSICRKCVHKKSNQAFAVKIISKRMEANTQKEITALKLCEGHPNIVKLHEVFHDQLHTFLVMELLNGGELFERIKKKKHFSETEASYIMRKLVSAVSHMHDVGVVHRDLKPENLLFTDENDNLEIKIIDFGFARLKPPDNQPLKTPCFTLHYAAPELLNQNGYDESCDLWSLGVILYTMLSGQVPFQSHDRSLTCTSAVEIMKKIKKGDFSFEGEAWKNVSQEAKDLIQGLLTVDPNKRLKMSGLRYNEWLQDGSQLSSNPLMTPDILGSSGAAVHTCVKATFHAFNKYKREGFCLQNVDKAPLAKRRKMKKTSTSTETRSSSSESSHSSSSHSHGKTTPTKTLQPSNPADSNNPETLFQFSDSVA
Sequence of LIM domain kinase 2 (P53671 whole entry, the tested form may be a part): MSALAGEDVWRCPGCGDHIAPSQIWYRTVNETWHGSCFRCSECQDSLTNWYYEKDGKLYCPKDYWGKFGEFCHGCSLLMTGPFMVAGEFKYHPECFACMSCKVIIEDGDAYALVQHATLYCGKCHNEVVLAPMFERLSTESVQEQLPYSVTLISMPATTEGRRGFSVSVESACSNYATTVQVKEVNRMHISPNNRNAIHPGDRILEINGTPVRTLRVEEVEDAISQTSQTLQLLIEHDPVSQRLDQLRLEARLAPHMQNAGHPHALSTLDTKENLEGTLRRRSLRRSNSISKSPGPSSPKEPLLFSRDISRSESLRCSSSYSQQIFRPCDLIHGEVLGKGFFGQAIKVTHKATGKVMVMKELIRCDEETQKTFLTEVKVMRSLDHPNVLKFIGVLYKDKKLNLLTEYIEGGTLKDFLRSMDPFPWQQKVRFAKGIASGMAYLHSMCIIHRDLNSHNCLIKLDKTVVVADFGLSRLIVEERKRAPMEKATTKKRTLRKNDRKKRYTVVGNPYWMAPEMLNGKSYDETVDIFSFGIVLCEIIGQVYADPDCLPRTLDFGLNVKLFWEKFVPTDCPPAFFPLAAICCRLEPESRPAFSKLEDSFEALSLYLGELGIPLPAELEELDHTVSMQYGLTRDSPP
Sequence of cAMP-dependent protein kinase type II-alpha regulatory subunit (P13861 whole entry): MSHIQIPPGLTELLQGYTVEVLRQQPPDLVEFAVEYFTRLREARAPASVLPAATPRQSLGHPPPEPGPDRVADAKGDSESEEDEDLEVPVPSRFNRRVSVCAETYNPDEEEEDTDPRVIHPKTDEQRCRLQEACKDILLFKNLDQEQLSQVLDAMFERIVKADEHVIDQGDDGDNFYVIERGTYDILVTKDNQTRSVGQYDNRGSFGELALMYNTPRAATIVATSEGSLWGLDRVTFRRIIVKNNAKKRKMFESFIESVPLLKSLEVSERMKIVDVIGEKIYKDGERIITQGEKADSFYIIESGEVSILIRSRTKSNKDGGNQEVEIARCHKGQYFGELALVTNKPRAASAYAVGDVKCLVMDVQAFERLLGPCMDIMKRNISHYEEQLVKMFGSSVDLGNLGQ

For `COc1cc(CCc2cc(NC(=O)c3ccc(N4C[C@@H](C)N[C@@H](C)C4)cc3)n[nH]2)cc(OC)c1` [AZD-4547], the Kd in test [1] is > 30 µM (inactive); in test [2], > 30 µM (inactive); at LIM domain kinase 2 it was > 30 µM (inactive); in test [3], 9.02 µM (active); in [4] it was > 30 µM (inactive); in test [5] it was > 30 µM (inactive). Further, the Kd (at Focal adhesion kinase 1; in test [6]; in [7]; in test [8]; in test [9]) was > 30 µM (inactive) each time.

In the case of `Cc1cc2c(F)c(Oc3ncnn4cc(OC[C@@H](C)OC(=O)[C@H](C)N)c(C)c34)ccc2[nH]1` [BRIVANIB ALANINATE], the Kd (in [1]; in [2]; on LIM domain kinase 2; in [3]; in test [4]; in test [5]) was > 30 µM (inactive) throughout. Moreover, the Kd (at Focal adhesion kinase 1; in test [6]; in test [7]; in [8]; in [9]) was > 30 µM (inactive) in each case.

For `C[C@@H]1CN(Cc2ccc(F)cc2)[C@@H](C)CN1C(=O)c1cc2c(C(=O)C(=O)N(C)C)cn(C)c2cc1Cl` [TALMAPIMOD], the Kd (in test [1]; in test [2]; at LIM domain kinase 2; in test [3]; in test [4]; in test [5]) was > 30 µM (inactive) throughout. Besides, the Kd (at Focal adhesion kinase 1; in [6]; in [7]; in test [8]; in test [9]) was > 30 µM (inactive) throughout.

For `CN1CCC(COc2cnc(-c3cccc(Cn4nc(-c5cccc(C#N)c5)ccc4=O)c3)nc2)CC1` [TEPOTINIB], the Kd (in test [1]; in test [2]; on LIM domain kinase 2; in [3]; in test [4]; in test [5]) was > 30 µM (inactive) throughout. Besides, the Kd (at Focal adhesion kinase 1; in [6]; in test [7]; in test [8]; in [9]) was > 30 µM (inactive) in each case.

With `COc1cc2nccc(Oc3ccc(NC(=O)Nc4cc(C)on4)c(Cl)c3)c2cc1OC` [TIVOZANIB], the Kd (in [1]; in test [2]; at LIM domain kinase 2; in test [3]; in test [4]; in test [5]) was > 30 µM (inactive) in each case. For the same compound, the Kd (at Focal adhesion kinase 1; in test [6]; in test [7]; in test [8]; in [9]) was > 30 µM (inactive) each time.

Turning to `N[C@@H]1CCCN(c2c(/C=C3\SC(=O)NC3=O)cccc2-c2ccccc2)C1`, the Kd (in test [1]; in test [2]; at LIM domain kinase 2; in test [3]; in test [4]; in test [5]) was > 30 µM (inactive) each time. Also, the Kd (at Focal adhesion kinase 1; in test [6]; in test [7]; in test [8]; in test [9]) was > 30 µM (inactive) in each case.

As for `Cc1cc([C@@H](C)Nc2ccccc2C(=O)O)c2nc(N3CCOCC3)cc(=O)n2c1` [AZD-6482], the Kd (in test [1]; in [2]; at LIM domain kinase 2; in [3]; in [4]; in test [5]) was > 30 µM (inactive) each time. The Kd (on Focal adhesion kinase 1; in [6]; in test [7]; in test [8]; in test [9]) was > 30 µM (inactive) in each case.

As to `CN1CCC(CNc2ccc3ncc(-c4cccc(OC(F)(F)F)c4)n3n2)CC1` [SGI-1776], the Kd (in [1]; in test [2]; at LIM domain kinase 2; in test [3]; in [4]; in [5]) was > 30 µM (inactive) throughout. The Kd (at Focal adhesion kinase 1; in test [6]; in test [7]; in test [8]; in test [9]) was > 30 µM (inactive) each time.

Regarding `CC(C)Nc1cc(-c2c[nH]c(C(=O)N[C@H](CO)c3cccc(Cl)c3)c2)c(Cl)cn1` [ULIXERTINIB], the Kd (in test [1]; in [2]; at LIM domain kinase 2; in test [3]; in [4]; in test [5]) was > 30 µM (inactive) each time. In addition, the Kd (on Focal adhesion kinase 1; in test [6]; in [7]; in test [8]; in test [9]) was > 30 µM (inactive) in each case.

Broadly, the Kd is the free concentration of one partner at which half of the binding sites on the other are occupied at equilibrium, for simple one-to-one binding.
